Where two headings read alike, the source gives them in different places.
How the values were obtained:
[1] = molecular target: T1, Plasmodium falciparum dUTPase (Plasmodium falciparum, UniProt Q8II92); assay: Inhibition of Plasmodium falciparum dUTPase (malaria enzyme assay); type: biochemical
T1 construct: made in house; host or cells: E. coli BL21 (DE3)
T1 sequence (Q8II92 1-173): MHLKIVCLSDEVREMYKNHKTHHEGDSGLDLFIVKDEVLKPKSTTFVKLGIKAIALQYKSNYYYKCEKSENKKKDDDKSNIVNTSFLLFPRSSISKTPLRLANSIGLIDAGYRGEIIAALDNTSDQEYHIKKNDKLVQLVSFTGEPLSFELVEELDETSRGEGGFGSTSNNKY
Protocol: Inhibition of Plasmodium falciparum dUTPase
2′-dUTP, was purchased from Pharmacia. MgCl2, BSA, and the pH indicator cresol red were from Sigma. The buffer N,N-bis(2-hydroxyethyl)glycine (BICINE) was obtained from USB (United States Biochemical), Ohio. All the concentrations of nucleotides were calculated spectrophotometrically (HP-8453, Hewlett Packard) at 280 nm, using the extinction coefficient (ε280 nm=1.75 ml mg^−1cm^−1). Other chemicals used in these experiments were of the highest quality available.
Conserved motifs of the human dUTPase enzyme were used as query to identify the PFdut gene in the www.tigr.org database of the Plasmodium falciparum 3D7 strain. The entire coding sequence was amplified by the PCR using as template cDNA and as primers the oligonucleotides ATG-PFdut ([…]) and TGA-PFdut ([…]) which were designed so that NdeI and BamHI restriction sites were introduced at the 5′ and 3′ ends for convenient cloning in the expression vector pET11 (Stratagene). The amplified product was cloned into pGEMT (Promega) and propagated in E. coli XL1B cells. In order to confirm the correct sequence after amplification, sequencing was performed using an Applied Biosystems Automated Sequencer, at the Analytical Services of the Instituto de Parasitología y Biomedicina “López Neyra”. These Services also supplied the oligonucleotides designed for the sequencing
Recombinant P. falciparum dUTPase was purified from E. coli BL21 (DE3) cells transformed with pET-PFdut. Pellets from a liter of culture were resuspended in a solution consisting of buffer A (20 mM MES pH 5.5, 50 mM NaCl, 1 mM DTT) plus the protease inhibitors 1 mM PMSF, 20 μg/ml leupeptin and 1 mM benzamidine. Purification was carried out in a cold room (4° C.). The soluble crude extract was obtained by sonication in a Vibra-cell (Sonics and Materials Inc. Danbury, Conn., USA) and centrifugation at 14000×g. The extract was loaded onto a phosphocellulose column (Whatman) pre-equilibrated with buffer A at a flow rate of 1 ml/min. After washing the column with 100 ml of buffer A, elution was performed using a linear NaCl gradient of 50 to 1000 mM. Peak fractions with a low concentration of contaminating protein, as judged by 15% SDS-PAGE gels, were pooled and then loaded and chromatographed on a Superdex 200 column at a flow rate of 0.5 ml/min. The column was equilibrated with buffer B (50 mM Bicine, 1 mM DTT, 10 mM MgCl2). Peak fractions were pooled and concentrated to about 5 mg/ml by ultrafiltration in a Centripep tube (Amicon) and stored at −80° C.
Nucleotide hydrolysis was monitored by mixing enzyme and substrate with a rapid kinetic accessory (Hi-Tech Scientific) attached to a spectrophotometer (Cary 50) and connected to a computer for data acquisition and storage. Protons, released through the hydrolysis of nucleotides, were neutralised by a pH indicator in a weak buffered medium with similar pKa and monitored spectrophotometrically at the absorbance peak of the basic form of the indicator. Absorbance changes were kept within 0.1 units. The indicator/buffer pair used was cresol red/BICINE ([…], pH 8, 573 nm). The measurements were performed at 25° C., and the solutions were previously degassed. […] Indicator absorbance changes corresponding to complete hydrolysis of nucleotides were recorded in the computer, and the kinetic parameters Vmax and Kmapp (or slope) were calculated by fitting the data to the integrated Michaelis-Menten equation (Segel, 1975). […]

P. falciparum = assay: Malaria whole cell assay (3H-hypoxanthine incorporation); type: cell-based; conditions: Plasmodium falciparum cell culture; read-out: ED50 (the source's name)
Protocol: Two strains of P. falciparum are used in this study: The drug sensitive NF54 (an airport strain of unknown origin) and K1 (Thailand, chloroquine and pyrimethamine resistant). The strains are maintained in RPMI-1640 medium with 0.36 mM hypoxanthine supplemented with 25 mM HEPES, 25 mM NaHC03, neomycin (100 U/ml) and Albumax^R (lipid-rich bovine serum albumin) (GIBCO, Grand Island, N.Y.) (5 g/l), together with 5% washed human A+ erythrocytes. All cultures and assays are conducted at 37° C. under an atmosphere of 4% C02, 3% 02 and 93% N2. Cultures are kept in incubation chambers filled with the gas mixture. Subcultures are diluted to a parasitaemia of 0.1-0.5% and the medium changed daily.
Antimalarial activity is assessed using an adaptation of the procedures described by Desjardins et al. (Antimicrob. Agents Chemother. 16(6):710-8, 1979), and Matile and Pink (In: Lefkovits, I. and Pernis, B. (Eds.). Immunological Methods. Academic Press, San Diego, pp. 221-234, 1990).
After use the stocks are kept at −20° C. The compound is further diluted to the appropriate concentration using complete medium without hypoxanthine.
Assays are performed in sterile 96-well microtiter plates, each well containing 200 μl of parasite culture (0.15% parasitemia, 2.5% hematocrit) with or without serial drug solutions. Seven 2-fold dilutions are used covering a range from 5 μg/ml 0.078 μg/ml.
After 48 hours of incubation at 37° C., 0.5 μCi ^3H-hypoxanthine is added to each well. Cultures are incubated for a further 24 h before they are harvested onto glass-fiber filters and washed with distilled water. The radioactivity is counted using a Betaplate™ liquid scintillation counter (Wallac, Zurich, Switzerland). […] From the sigmoidal inhibition curves IC50 values are calculated.
K1 strain is used. The compounds are tested at 7 concentrations (5000 to 78 ng/ml). Artemisinin and chloroquine are included as reference drugs.
A new range of concentrations is chosen depending on the IC50 determined (e.g. 100 to 1.56 ng/ml) and the assay is carried out 2× independently.
The standard drugs are chloroquine and artemisinin which are run in the same assay.

[2] = molecular target: T2, Human recombinant dUTPase (Homo sapiens, UniProt P33316); assay: Human dUTPase assay; type: biochemical; conditions: human enzyme versus Plasmodium falciparum enzyme
T2 construct: made in house; host or cells: E. coli BL21 (DE3)
T2 sequence (P33316 112-252 limits assumed): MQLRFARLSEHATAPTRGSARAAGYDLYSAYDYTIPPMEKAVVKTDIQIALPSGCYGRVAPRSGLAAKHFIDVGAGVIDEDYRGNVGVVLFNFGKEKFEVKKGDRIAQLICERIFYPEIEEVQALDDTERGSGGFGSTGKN
Protocol: Human recombinant dUTPase was purified from E. coli BL21 (DE3) cells transformed with pETHudut (Dr. P. O. Nyman, Lund University). Purification was accomplished as described for the dUTPase above except that the last step in Superdex 200 was omitted. Likewise, conditions for enzyme assays were the same as described above except that the enzyme concentration was 50 nM.

Leishmania dUTPase = Leishmania dUTPase (Leishmania major, UniProt O15826); conditions: Hidalgo-Zarco and González-Pacanowska 2001; cited from earlier work
Chain of Leishmania dUTPase (O15826 entry or part of it): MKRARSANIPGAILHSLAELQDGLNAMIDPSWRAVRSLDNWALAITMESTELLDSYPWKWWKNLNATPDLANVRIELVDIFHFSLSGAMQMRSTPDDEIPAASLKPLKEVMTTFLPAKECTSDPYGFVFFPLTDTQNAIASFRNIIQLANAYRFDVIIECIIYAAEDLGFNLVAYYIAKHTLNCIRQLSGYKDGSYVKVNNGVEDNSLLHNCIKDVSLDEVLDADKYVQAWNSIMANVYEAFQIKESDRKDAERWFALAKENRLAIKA

[3] = Plasmodium falciparum enzyme, read-out: Ki

Row | Structure (SMILES) | Ki [1, 3] [µM] | EC50 (P. falciparum) [µM] | SI (selectivity over the human enzyme) [2] | Ki [1] [µM] | inhibition of Leishmania dUTPase (Leishmania dUTPase)
1 | O=c1ccn(CCCCNC(c2ccccc2)(c2ccccc2)c2ccccc2)c(=O)[nH]1 | 0.9 | 3.8 | 1111 |  | 
2 | O=c1ccn(CCCCCNC(c2ccccc2)(c2ccccc2)c2ccccc2)c(=O)[nH]1 | 4.29 | 2.2 | >233 |  | 
3 | O=c1ccn(COCCOC(c2ccccc2)(c2ccccc2)c2ccccc2)c(=O)[nH]1 |  | 0.9 | 25.3 | 0.67 | 
4 | O=c1ccn(CCCCOC(c2ccccc2)(c2ccccc2)c2ccccc2)c(=O)[nH]1 |  | 4.9 | 617 | 1.62 | 
5 | O=c1ccn(CCCCO[Si](c2ccccc2)(c2ccccc2)c2ccccc2)c(=O)[nH]1 |  | 0.43 | 226 | 1.69 | 
6 | COc1ccc(C(OC[C@H]2O[C@@H](n3ccc(=O)[nH]c3=O)C[C@@H]2O)(c2ccccc2)c2ccc(OC)cc2)cc1 [5′-O-(4-4′-dimethoxytrityl)-2′-deoxyuridine] |  |  |  |  | no inhibition
7 | O=c1ccn([C@H]2C[C@H](O)[C@@H](COP(=O)(O)NP(=O)(O)OP(=O)(O)O)O2)c(=O)[nH]1 [α-β-imido-dUTP] |  |  |  |  | Competitive inhibition

Source: patent US8017620B2, “Dutpase inhibitors” (Medivir AB, priority 2004, dated 2011)
